What all share (format): functional, organism-based
In assay [1] the test system is Mus musculus. Briefly: Antiinflammatory activity against TPA-induced ear edema in CD1 mouse assessed as reduction in weight of ear punches at 125 ug/ear, each surface administered topically for 15 mins prior to TPA challenge and measured after 6 hrs.
In assay [2] the test system is Mus musculus. Briefly: Antiinflammatory activity against TPA-induced ear edema in CD1 mouse assessed as reduction in ear edema at 125 ug/ear, each surface administered topically for 15 mins prior to TPA challenge and measured after 6 hrs.
In assay [3] the test system is Mus musculus. Briefly: Antiinflammatory activity in CD1 mouse model of TPA-induced ear edema assessed as decrease in COX-2 expression at 125 ug/ear, each surface administered topically for 15 mins prior to TPA challenge and measured after 6 hrs by qRT-PCR analysis.
In assay [4] the test system is Mus musculus. Briefly: Antiinflammatory activity in CD1 mouse model of TPA-induced ear edema assessed as decrease in TNFalpha expression at 125 ug/ear, each surface administered topically for 15 mins prior to TPA challenge and measured after 6 hrs by qRT-PCR analysis.
Assay [5] has as its system Mus musculus. Briefly: Antiinflammatory activity in CD1 mouse model of TPA-induced ear edema assessed as decrease in IL-6 expression at 125 ug/ear, each surface administered topically for 15 mins prior to TPA challenge and measured after 6 hrs by qRT-PCR analysis.
Assay [6] concerns Mus musculus. Briefly: Antiinflammatory activity in CD1 mouse model of TPA-induced ear edema assessed as decrease in MIF expression at 125 ug/ear, each surface administered topically for 15 mins prior to TPA challenge and measured after 6 hrs by qRT-PCR analysis.
In assay [7] the test system is Mus musculus. Briefly: Antiinflammatory activity in CD1 mouse model of TPA-induced ear edema assessed as decrease in IFNgamma expression at 125 ug/ear, each surface administered topically for 15 mins prior to TPA challenge and measured after 6 hrs by qRT-PCR analysis.
In assay [8] the test system is Mus musculus. Briefly: Antiinflammatory activity in CD1 mouse assessed as reduction in TPA-induced ear flushing at 125 ug/ear, each surface administered topically for 15 mins prior to TPA challenge and measured after 6 hrs.
For assay [9], the system named is Mus musculus. Briefly: Antiinflammatory activity against TPA-induced ear edema in CD1 mouse assessed as reduction in weight of ear punches at 225 ug/ear, each surface administered topically for 15 mins prior to TPA challenge and measured after 6 hrs.
In assay [10] the test system is Mus musculus. Briefly: Antiinflammatory activity against TPA-induced ear edema in CD1 mouse assessed as reduction in ear edema at 225 ug/ear, each surface administered topically for 15 mins prior to TPA challenge and measured after 6 hrs.
The test system of assay [11] is Mus musculus. Briefly: Antiinflammatory activity in CD1 mouse model of TPA-induced ear edema assessed as decrease in COX-2 expression at 250 ug/ear, each surface administered topically for 15 mins prior to TPA challenge and measured after 6 hrs by qRT-PCR analysis.
Assay [12] deals with Mus musculus. Briefly: Antiinflammatory activity in CD1 mouse model of TPA-induced ear edema assessed as decrease in TNFalpha expression at 250 ug/ear, each surface administered topically for 15 mins prior to TPA challenge and measured after 6 hrs by qRT-PCR analysis.
For assay [13], the system named is Mus musculus. Briefly: Antiinflammatory activity in CD1 mouse model of TPA-induced ear edema assessed as decrease in IL-6 expression at 250 ug/ear, each surface administered topically for 15 mins prior to TPA challenge and measured after 6 hrs by qRT-PCR analysis.
Assay [14] deals with Mus musculus. Briefly: Antiinflammatory activity in CD1 mouse model of TPA-induced ear edema assessed as decrease in MIF expression at 250 ug/ear, each surface administered topically for 15 mins prior to TPA challenge and measured after 6 hrs by qRT-PCR analysis.
Assay [15] has as its system Mus musculus. Briefly: Antiinflammatory activity in CD1 mouse model of TPA-induced ear edema assessed as decrease in IFNgamma expression at 250 ug/ear, each surface administered topically for 15 mins prior to TPA challenge and measured after 6 hrs by qRT-PCR analysis.
In assay [16] the test system is Mus musculus. Briefly: Antiinflammatory activity in CD1 mouse assessed as reduction in TPA-induced ear flushing at 250 ug/ear, each surface administered topically for 15 mins prior to TPA challenge and measured after 6 hrs.

Calls of active or inactive are those of the source. No cut-off for these calls is given here.

Turning to `CC(=O)O[C@H]1C[C@H]2[C@@H]3CC=C4C[C@@H](O)CC[C@]4(C)[C@H]3CC[C@]2(C)[C@H]1[C@H](C)C(=O)CC[C@@H](C)/C=N/O`, in the assay with Mus musculus [1], the outcome was inactive.

With `CC(=O)O[C@H]1C[C@H]2[C@@H]3CC=C4C[C@@H](O)CC[C@]4(C)[C@H]3CC[C@]2(C)[C@H]1[C@H](C)C(=O)CC[C@H](C)/C=N/O`, the result with Mus musculus [1], in the assay on Mus musculus [2], in the assay with Mus musculus [3], in the assay with Mus musculus [4], in the assay with Mus musculus [5] and in the assay with Mus musculus [6] was Active. Also, the outcome in the assay with Mus musculus [7] and with Mus musculus [8] was inactive.

For `CC(=O)O[C@H]1C[C@H]2[C@@H]3CC=C4C[C@@H](O)CC[C@]4(C)[C@H]3CC[C@]2(C)[C@H]1[C@H](C)C(=O)CC/C(C)=N/O`, the result with Mus musculus [1], with Mus musculus [2], in the assay on Mus musculus [3], in the assay with Mus musculus [4], with Mus musculus [5] and in the assay on Mus musculus [6] was Active. The outcome in the assay with Mus musculus [7] and in the assay on Mus musculus [8] was inactive.

Take `C[C@@H]1C[C@H]2[C@@H]3CCC4=CC(=O)C=C[C@]4(C)[C@@]3(F)[C@@H](O)C[C@]2(C)[C@@]1(O)C(=O)CO`: the outcome with Mus musculus [9], in the assay on Mus musculus [10], in the assay with Mus musculus [11], with Mus musculus [12], with Mus musculus [13] and in the assay with Mus musculus [14] was Active. Besides, the outcome in the assay on Mus musculus [15] and with Mus musculus [16] was inactive.

For `CC(=O)O[C@H]1CC[C@@]2(C)C(=CC[C@H]3[C@@H]4C[C@H](OC(C)=O)[C@H]([C@H](C)C(=O)CC[C@@H](C)/C=N/O)[C@@]4(C)CC[C@@H]32)C1`, the outcome in the assay with Mus musculus [1] was inactive.

Consider `CC(=O)O[C@H]1CC[C@@]2(C)C(=CC[C@H]3[C@@H]4C[C@H](OC(C)=O)[C@H]([C@H](C)C(=O)CC[C@H](C)/C=N/O)[C@@]4(C)CC[C@@H]32)C1`, for which the result in the assay with Mus musculus [1], in the assay with Mus musculus [2], with Mus musculus [3], with Mus musculus [4], in the assay on Mus musculus [5] and with Mus musculus [6] was Active. Moreover, the outcome in the assay with Mus musculus [7] and in the assay on Mus musculus [8] was inactive.

The values above are taken from ChEMBL document CHEMBL4340511, “22-Oxocholestane oximes as potential anti-inflammatory drug candidates” (Eur J Med Chem, 2019).
